Results from article PMC6160541 (Frontiers in Chemistry, 2018).
Like-named read-outs stand apart in the source and are kept apart here.

Key:
LNCaP = test: MTT cytotoxicity assay, LNCaP; format: cell-based, human; settings: 48 h
Protocol: (§1) We evaluated the cytotoxicity of 1c-6c, 1d-7d and of the positive control 1a-5a against a panel of human cancer cells using MTT (3-(4,5-dimethylthiazol-2-yl)-2,5-diphenyltetrazolium bromide) assay. The IC50 values were calculated based on three parallel experiments.
(§2) Cisplatin and oxaliplatin were purchased from Yurui Chemical Co. Ltd. (Shanghai, China). All of the other chemicals were obtained from commercial suppliers, such as Alfa […]
(§3) IonSpec QFT mass spectrometer with ESI ionization. 3-(4,5-dimethylthiazol-2-yl) […]
(§4) Phosphate-buffered saline (PBS) contains 137 mM
(§5) NaCl, 2.7 mM KCl, 10 mM Na2HPO4 and 2 mM KH2PO4. Fetal bovine serum (FBS), 0.25% trypsin/EDTA solution, and penicillin-streptomycin solution were purchased from […]
(§6) Invitrogen (Grand Island, NY, USA). […]
(§7) HeLa (cervical carcinoma cell line), MCF-7 (breast gland adenocarcinoma), LNCaP and PC3 (prostatic cancer), HepG-2 (hepatocellular carcinoma), A549 and A549R (lung carcinoma) were used for the MTT […]
(§8) In Vitro Cellular Cytotoxicity Assays
(§9) Cells seeded in 96-well plates were incubated in a 5% CO2 atmosphere in 100 µL of complete medium at 37 ℃ for 24 h. Then, 100 µL of freshly prepared culture medium containing drugs at different concentrations was added and incubated for another 48 h.
(§10) MTT (5 mg/mL, 20 µL) was added and incubated for 3 h. Finally, the medium was removed, and DMSO (150 µL) was added. The absorbance was measured at 570 nm using a Bio-Rad 680 microplate reader. The IC50 values were calculated using GraphPad […]
(§11) Prism software. […]

MCF-7 = test: MTT cytotoxicity assay, MCF-7; format: cell-based, human; settings: 48 h
Protocol: as §1, §2, §3, §4, §5, §6, §7, §8, §9, §10, §11

HeLa = test: MTT cytotoxicity assay, HeLa; format: cell-based, human; settings: 48 h
Protocol: as §1, §2, §3, §4, §5, §6, §7, §8, §9, §10, §11

HepG-2 = test: MTT cytotoxicity assay, HepG-2; format: cell-based, human; settings: 48 h
Protocol: as §1, §2, §3, §4, §5, §6, §7, §8, §9, §10, §11

A549R = test: MTT cytotoxicity assay, A549R (cisplatin-resistant); format: cell-based, human; settings: for IC50: MTT, 48 h
Protocol: as §1, §2, §3, §4, §5, §6, §7, §8, §9, §10, §11

PC3 = test: MTT cytotoxicity assay, PC3; format: cell-based, human; settings: 48 h
Protocol: as §1, §2, §3, §4, §5, §6, §7, §8, §9, §10, §11

A549 = test: MTT cytotoxicity assay, A549; format: cell-based, human; settings: 48 h
Protocol: as §1, §2, §3, §4, §5, §6, §7, §8, §9, §10, §11

MCF-7 cells = test: MTT cytotoxicity with GLUT1 inhibitors (EDG, phloretin) and OCT2 inhibitor (Ctd.) in MCF-7 cells; format: cell-based, human
Protocol: For cytotoxicity assays, the GLUT1 inhibitors EDG (1) and phloretin (2), the OCT2 inhibitor Ctd. (cimetidine) (3), and the mixture of EDG and Ctd.(4) were selected to undergo a similar procedure as antitumor activity in vitro. MCF-7 cells were seeded on a 96 well plate in 100 μL of RPMI and were incubated for 24 h at 37°C, and EDG-containing RPMI medium, phloretin-containing RPMI medium and Ctd.-containing RPMI medium were used to render the serial dilution of the concentrated solutions of the platinum compounds, and 100 μL/well was added (resulting in final inhibitor concentrations of 75 mM, 100 μM and 3 mM). The cytotoxicity profiles of the compounds were evaluated using MTT assay. […]
as §8, §9
as §10, with “GraphPad Prism software. Technical repetitions and independent experiments were based on three” for “GraphPad”
For cytotoxicity assays using the GLUT1 inhibitor 4,6-O-ethylidene-α-D-glucose (EDG), phloretin and the OCT2 inhibitor Ctd., a similar procedure as described above was followed except that MCF-7 cells (3500 cells/well) were seeded on a 96 well plate in 100 µL of RPMI and incubated for 24 h at 37 °C. EDG, phloretin and Ctd. containing RPMI medium were used for serial dilution of the concentrated solutions of the platinum compounds, and 100 µL/well were added (resulting in final inhibitor concentrations of 75 mM, 100 µM and 3 mM, respectively). The cytotoxicity profiles of the compounds were evaluated using the MTT assay. […]

[1] = Stability in whole human blood; format: in vitro ADME
Text: (§12) One of the advantages of inert Pt(IV) prodrugs is their enhanced stability in RPMI 1640 and whole human blood.

293T = test: Viability of normal cells 293T, 48 h incubation assay; format: cell-based
Protocol: (§13) An ideal anticancer compound should be selective for cancer cells over normal healthy cells, thereby mitigating the undesired toxic side effects associated with chemotherapy.
(§14) Scheme 9. Synthetic route of 38b. Conditions and reagents: (a) Ac2O and NaOAc; (b) TMSN3, BF3OEt2, and DCM; (c) MeONa and MeOH rt overnight; (d) BnBr, NaH, and DMF overnight; (e) […]
(§15) Preparation of 46b and 47b
(§16) Compounds 46b (38%) and 47b (45%) were prepared according to the procedure described for compounds 20b and 21b, respectively.
(§17) Compound 48b (45%) was prepared according to the procedure described for compound […]
as §8
(§18) Cells seeded in 96-well plates were incubated in a 5% CO2 atmosphere in 100 µL of complete medium at 37 ℃ for 24 h. […]
(§19) MTT (5 mg/mL, 20 µL) was added and incubated for 3 h. […] The absorbance was measured at 570 nm using a Bio-Rad 680 microplate reader. The IC50 values were calculated using GraphPad Prism software. […]
(§20) For cytotoxicity assays using the GLUT1 inhibitor 4,6-O-ethylidene-α-D-glucose (EDG), phloretin and the OCT2 inhibitor Ctd., a similar procedure as described above was followed except that MCF-7 cells (3500 cells/well) were seeded on a 96 well plate in 100 µL of RPMI and incubated for 24 h at 37 °C. […] The cytotoxicity profiles of the compounds were evaluated using the MTT assay. […]

3T3 = test: Viability of normal cells 3T3, 48 h incubation assay; format: cell-based
Protocol: as §13, §14, §15, §16, §17, §8, §18, §19, §20

Stability in RPMI 1640 = format: physicochemical
Text: as §12

Row | Compound | IC50 (LNCaP) [µM] | IC50 (MCF-7) [µM] | IC50 (HeLa) [µM] | IC50 (HepG-2) [µM] | IC50 (A549R) [µM] | IC50 (PC3) [µM] | IC50 (A549) [µM] | RF: Resistance factor = IC50(A549R)/IC50(A549) (A549R) | IC50 with EDG, folds higher than 48 h IC50 (MCF-7 cells; MCF-7, EDG) [fold] | IC50 with mixture of EDG and Ctd., folds higher than 48 h IC50 (MCF-7 cells; MCF-7, EDG + Ctd.) [fold] | IC50 (MCF-7 cells; MCF-7, GLUT1 inhibitor EDG 75 mM, read-out: IC50 with EDG) [µM] | IC50 (MCF-7 cells; MCF-7, GLUT1 inhibitor phloretin 100 μM, read-out: IC50 with phloretin) [µM] | IC50 with Ctd., folds higher than 48 h IC50 (MCF-7 cells; MCF-7, OCT2 inhibitor Ctd. 3 mM) [fold] | IC50 with phloretin, folds higher than 48 h IC50 (MCF-7 cells; MCF-7, phloretin) [fold] | t1/2 in whole human blood [1] [h] | IC50 (293T) [µM] | IC50 (3T3) [µM] | half-life (Stability in RPMI 1640; RPMI 1640) | remained unchanged (Stability in RPMI 1640; RPMI 1640, after 48 h) [%] | decomposition (Stability in RPMI 1640; RPMI medium, up to 12 h)
1 | N.N.O=C(CCC(=O)[O][Pt]([OH])([Cl])[Cl])NCCO[C@H]1O[C@H](CO)[C@@H](O)[C@H](O)[C@@H]1O [3d] | > 100 | 45.1 ± 0.77 | 3.01 ± 0.67 | 13.2 ± 1.38 | > 100 | > 100 | 1.9 ± 2.78 | – | – | – | – | – | – | – | – | – | – | – | – | –
2 | NC1CCCCC1N.O=C1[O][Pt]([OH])([OH])[O]C1=O [4a, reference compound] | 23 ± 0.89 | > 100 | 15.8 ± 0.34 | > 100 | 29.7 ± 0.64 | > 100 | > 100 | – | – | – | – | – | – | – | – | – | – | – | – | –
3 | CC(=O)OC[C@H]1O[C@@H](NC(=O)CCC(=O)[O][Pt-2]23([OH])([NH2+][C@@H]4CCCC[C@H]4[NH2+]2)[O]C(=O)C(=O)[O]3)[C@H](OC(C)=O)[C@@H](OC(C)=O)[C@@H]1O[C@H]1O[C@H](COC(C)=O)[C@@H](OC(C)=O)[C@H](OC(C)=O)[C@H]1OC(C)=O [4c] | > 100 | 7.21 ± 0.78 | > 100 | 10.7 ± 1.49 | 25.2 ± 1.79 | 22.9 ± 0.78 | 14.3 ± 1.48 | – | – | – | – | – | – | – | – | – | – | – | – | –
4 | CC(=O)OC[C@H]1O[C@@H](NC(=O)CCC(=O)[O][Pt-2]23([OH])([NH2+][C@@H]4CCCC[C@H]4[NH2+]2)[O]C(=O)C(=O)[O]3)[C@H](OC(C)=O)[C@@H](OC(C)=O)[C@H]1OC(C)=O [5c] | 22.1 ± 1.45 | 17.89 ± 0.12 | 32.2 ± 0.34 | > 100 | 74.1 ± 1.67 | 7.45 ± 0.56 | 17.5 ± 0.89 | 4.24 | – | – | – | – | – | – | – | – | – | – | – | –
5 | O=C(CCC(=O)[O][Pt-2]12([OH])([NH2+][C@@H]3CCCC[C@H]3[NH2+]1)[O]C(=O)C(=O)[O]2)NCCCO[C@@H]1O[C@H](CO)[C@H](O)[C@H](O)[C@H]1O [5d] | 12 ± 0.79 | 0.35 | 0.58 ± 0.78 | 1.77 ± 1.39 | 5.67 ± 1.69 | 6.27 ± 1.45 | 2.29 ± 1.78 | – | – | – | – | – | – | – | – | – | – | – | – | –
6 | CC(=O)OC[C@H]1O[C@H](NC(=O)CCC(=O)[O][Pt-2]23([OH])([NH2+][C@@H]4CCCC[C@H]4[NH2+]2)[O]C(=O)C(=O)[O]3)[C@@H](OC(C)=O)[C@@H](OC(C)=O)[C@@H]1OC(C)=O [6c] | 20.1 ± 1.78 | 20.8 ± 0.45 | 16.8 ± 0.45 | 50.9 ± 1.46 | > 100 | 7.06 ± 0.56 | 23.8 ± 0.78 | – | – | – | – | – | – | – | – | – | – | – | – | –
7 | O=C(CCC(=O)[O][Pt-2]12([OH])([NH2+][C@@H]3CCCC[C@H]3[NH2+]1)[O]C(=O)C(=O)[O]2)NC[C@H]1OC(O)[C@H](O)[C@@H](O)[C@@H]1O (some centres unmarked) [6d] | 20 ± 0.79 | 0.89 ± 1.34 | 2.88 ± 0.67 | 4.1 ± 1.46 | 47 ± 1.69 | 66.6 ± 1.45 | 29.9 ± 1.78 | – | 36 | 95 | 31.8 | 38.7 | 82 | 44 | ~2.5 | 12.1 | > 100 | up to 170 h | 66 | No significant decomposition
